What was measured:
lung = experiment: In vivo mRNA delivery, IVIS imaging of organs: lung; set-up: species or system mice; key to Organs with luminescence: lung: strong: Strong meant the luminescence intensity in that organ was relatively high, compared to other organs; weak: Weak meant the luminescence intensity in that organ was relatively low, compared to other organs; conditions: Table 17; mice, IVIS, 4-6 h after injection; intensity relative to other organs
[1] = Stability of DNPs by DLS after storage at 5° C.; assay type: physicochemical; set-up: key to Original size distribution type (DLS curve) / Size distribution type (DLS curve): U: DLS curve showed unimodal size distribution; B: DLS curve showed bimodal size distribution; M: DLS curve showed multimodal size distribution; conditions: for pH Sample: DNPs: IAJD 4.0 mg/mL + Luc-mRNA 0.1 mg/mL, injection in acetate buffer pH 4.00; for PDI / Size (d, nm) / Original size distribution type (DLS curve): IAJD 4.0 mg/mL + Luc-mRNA 0.1 mg/mL; for PDI / Size (d, nm): acetate buffer; for Original size distribution type (DLS curve): before storage, acetate buffer pH 4.00
Procedure, shortened: (§1)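 DNPs in acetate buffer sized by DLS after storage at 5 °C. Stability ranked Excellent, Good or Not stable according to retention, shrinkage or growth of original size and narrowing or broadening of size distribution.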

[2] = Stability of DNPs by DLS after storage at 5° C.; assay type: physicochemical; set-up: key: Excellent: the original sizes and distribution types remained almost the same after storage; Good: the original sizes and distribution types changed slightly (size difference was less than 100 nm) or the original size remained almost the same but the DLS curve showed more size distributions after storage
Procedure, shortened: as §1

[3] = Dimensions (size, PDI) of DNPs co-assembled from IAJDs and Luc-mRNA by DLS; assay type: physicochemical
Procedure, shortened: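 Hydrodynamic size and PDI were read by dynamic light scattering at 23 °C, 175° backscatter, 633 nm. Particles formed by fast injection of ethanolic IAJD stock (80 mg/mL) into nucleoside-modified luciferase mRNA (stock 4.0 mg/mL) in 10 mM acetate pH 4.0, 5 s vortex.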

liver = experiment: In vivo mRNA delivery, IVIS imaging of organs: liver; set-up: species or system mice; key to Organs with luminescence: liver: strong: Strong meant the luminescence intensity in that organ was relatively high, compared to other organs; weak: Weak meant the luminescence intensity in that organ was relatively low, compared to other organs; conditions: Table 17; mice, IVIS, 4-6 h after injection; intensity relative to other organs
[4] = pKa measurements of individual IAJD molecules by titration; assay type: physicochemical; conditions: ethanol saturated with NaCl, titrated with 0.1 M aqueous HCl; individual IAJD molecules, titration
Procedure, shortened: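 pKa derived by half-equivalence-point analysis of a pH-meter titration curve: 0.1 M HCl added in 7.5 μL increments to a 1.5 mg/mL solution of each molecule in ethanol saturated with NaCl.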

[5] = Table 16, DNPs from IAJD 4 mg/mL and Luc-mRNA 0.10 mg/mL by injection in acetate buffer (10 mM, pH 4.0)
[6] = Table 17, DNPs used in vivo, IAJD 4 mg/mL, Luc-mRNA 0.10 mg/mL, acetate pH 4.0

| pH Sample [1] | Original size distribution type (DLS curve) [1] | PDI [3, 5] | Size (d, nm) [3, 5] [nm] | PDI [3, 6] | Size (d, nm) [3, 6] [nm] | pKa [4] | Size distribution type (DLS curve) ([1]; after 19 days at 5° C.) | PDI ([1]; after 19 days at 5° C.) | Size (d, nm) ([1]; after 19 days at 5° C.) [nm] | Ranking of stability ([2]; after 19 days at 5° C.) | Structure (SMILES) | Organs with luminescence: lung (lung) | Organs with luminescence: liver (liver) | also measured |
| --- | --- | --- | --- | --- | --- | --- | --- | --- | --- | --- | --- | --- | --- | --- |
| 4.51 | (U) | 0.306 | 194 | 0.306 | 194 | 6.28 | – | – | – | – | CCCCCCCCCCCCCCCOc1cc(COC(=O)CCCN2CCN(C)CC2)cc(OCCCCCCCCCCCCC)c1 [IAJD 145, 3-(pentadecyloxy)-5-(tridecyloxy)benzyl 4-(4-methylpiperazin-1-yl)butanoate] | Lung (strong), | liver (weak), | Size distribution type (DLS curve) ([1]; after 27 days at 5° C.): (U); PDI ([1]; after 27 days at 5° C.): 0.330; Size (d, nm) ([1]; after 27 days at 5° C.): 189 nm; Ranking of stability ([2]; after 27 days at 5° C.): Excellent |
| 4.40 | (U) | 0.276 | 231 | 0.276 | 231 | 6.59 | – | – | – | – | CCCCCCCCCCCCCCCOc1cc(COC(=O)CCCN2CCN(CCO)CC2)cc(OCCCCCCCCCCCCC)c1 [IAJD 146, 3-(Pentadecyloxy)-5-(tridecyloxy)benzyl 4-(4-(2-hydroxyethyl)piperazin-1-yl)butanoate] | Lung (strong), | liver (strong), | Size distribution type (DLS curve) ([1]; after 27 days at 5° C.): (U); PDI ([1]; after 27 days at 5° C.): 0.285; Size (d, nm) ([1]; after 27 days at 5° C.): 227 nm; Ranking of stability ([2]; after 27 days at 5° C.): Excellent |
| 4.50 | (U) | 0.287 | 144 | 0.287 | 144 | 6.32 | (U) | 0.283 | 145 | Excellent | CCCCCCCCCCCCCCCOc1cc(COC(=O)CCCN2CCN(C)CC2)cc(OCCCCCCCCCCCCCC)c1 [IAJD 147, 3-(Pentadecyloxy)-5-(tetradecyloxy)benzyl 4-(4-methylpiperazin-1-yl)butanoate] | Lung (weak), | liver (weak), | – |
| 4.46 | (U) | 0.339 | 363 | 0.339 | 363 | 6.65 | (B) | 0.374 | 405 | Good | CCCCCCCCCCCCCCCOc1cc(COC(=O)CCCN2CCN(CCO)CC2)cc(OCCCCCCCCCCCCCC)c1 [IAJD 148, 3-(Pentadecyloxy)-5-(tetradecyloxy)benzyl 4-(4-(2-hydroxyethyl)piperazin-1-yl)butanoate] | Lung (weak), | liver (weak), | – |
| 4.50 | (B) | 0.304 | 193 | 0.304 | 193 | 6.5 | (B) | 0.291 | 193 | Excellent | CCCCCCCCCCCCCCCCOc1cc(COC(=O)CCCN2CCN(C)CC2)cc(OCCCCCCCCCCCCCCC)c1 [IAJD 149, 3-(Hexadecyloxy)-5-(pentadecyloxy)benzyl 4-(4-methylpiperazin-1-yl)butanoate] | Lung (weak), | liver (weak), | – |
| 4.51 | (B) | 0.454 | 285 | 0.454 | 285 | 6.65 | (U) | 0.314 | 308 | Excellent | CCCCCCCCCCCCCCCCOc1cc(COC(=O)CCCN2CCN(CCO)CC2)cc(OCCCCCCCCCCCCCCC)c1 [IAJD 150, 3-(Hexadecyloxy)-5-(pentadecyloxy)benzyl 4-(4-(2-hydroxyethyl)piperazin-1-yl)butanoate] | Lung (weak), | liver (weak), | – |
| 4.57 | (U) | 0.216 | 287 | 0.216 | 287 | 6.39 | – | – | – | – | CCCCCCCCCCCCCCCCCOc1cc(COC(=O)CCCN2CCN(C)CC2)cc(OCCCCCCCCCCCCCCC)c1 [IAJD 151, 3-(Heptadecyloxy)-5-(pentadecyloxy)benzyl 4-(4-methylpiperazin-1-yl)butanoate] | Lung (weak), | liver (weak), | Size distribution type (DLS curve) ([1]; after 35 days at 5° C.): (U); PDI ([1]; after 35 days at 5° C.): 0.240; Size (d, nm) ([1]; after 35 days at 5° C.): 271 nm; Ranking of stability ([2]; after 35 days at 5° C.): Excellent |
| 4.52 | (U) | 0.238 | 232 | 0.238 | 232 | 6.42 | – | – | – | – | CCCCCCCCCCCCCCCCCCOc1cc(COC(=O)CCCN2CCN(C)CC2)cc(OCCCCCCCCCCCCCCC)c1 [IAJD 153, 3-(Octadecyloxy)-5-(pentadecyloxy)benzyl 4-(4-methylpiperazin-1-yl)butanoate] | Lung (weak), | liver (strong), | Size distribution type (DLS curve) ([1]; after 35 days at 5° C.): (U); PDI ([1]; after 35 days at 5° C.): 0.232; Size (d, nm) ([1]; after 35 days at 5° C.): 222 nm; Ranking of stability ([2]; after 35 days at 5° C.): Excellent |
| 4.47 | (B) | 0.407 | 429 | 0.407 | 429 | 6.48 | – | – | – | – | CCCCCCCCCCCCCCCCCCOc1cc(COC(=O)CCCN2CCN(CCO)CC2)cc(OCCCCCCCCCCCCCCC)c1 [IAJD 154, 3-(Octadecyloxy)-5-(pentadecyloxy)benzyl 4-(4-(2-hydroxyethyl)piperazin-1-yl)butanoate] | Lung (weak), | liver (weak), | Size distribution type (DLS curve) ([1]; after 35 days at 5° C.): (B); PDI ([1]; after 35 days at 5° C.): 0.471; Size (d, nm) ([1]; after 35 days at 5° C.): 372 nm; Ranking of stability ([2]; after 35 days at 5° C.): Excellent |
| 4.97 | (U) | 0.235 | 129 | 0.235 | 129 | 6.38 | – | – | – | – | CCCCCCCCCCCCCOc1cc(COC(=O)CCCN2CCN(C)CC2)cc(OCC(CC)CCCC)c1 (centres unmarked) [IAJD 161, 3-((2-Ethylhexyl)oxy)-5-(tridecyloxy)benzyl 4-(4-methylpiperazin-1-yl)butanoate] | Lung (weak), | liver (strong), | Size distribution type (DLS curve) ([1]; after 21 days at 5° C.): (U); PDI ([1]; after 21 days at 5° C.): 0.226; Size (d, nm) ([1]; after 21 days at 5° C.): 125 nm; Ranking of stability ([2]; after 21 days at 5° C.): Excellent |
| 4.66 | (B) | 0.301 | 191 | 0.301 | 191 | 6.33 | – | – | – | – | CCCCCCCCCCCCCOc1cc(COC(=O)CCCN2CCN(CCO)CC2)cc(OCC(CC)CCCC)c1 (centres unmarked) [IAJD 162, 3-((2-Ethylhexyl)oxy)-5-(tridecyloxy)benzyl 4-(4-(2-hydroxyethyl)piperazin-1-yl)butanoate] | Lung (weak), | liver (weak), | Size distribution type (DLS curve) ([1]; after 21 days at 5° C.): (B); PDI ([1]; after 21 days at 5° C.): 0.291; Size (d, nm) ([1]; after 21 days at 5° C.): 182 nm; Ranking of stability ([2]; after 21 days at 5° C.): Excellent |

Source: patent US20240252677A1, “ONE-COMPONENT DELIVERY SYSTEM FOR NUCLEIC ACIDS” (The Trustees of the University of Pennsylvania, priority 2021, published 2024)
